The source of these data is patent US8686043B2, “Heterocyclic sulfonamides, uses and pharmaceutical compositions thereof” (Pfizer Inc., priority 2009, dated 2014).

This assay deals with AMPA receptors. Briefly: AMPA ES Cell FLIPR Screen (AMPA Potentiator Assay). In kind it is cell-based, murine. The following applies: ES cell-derived neurons, FLIPR (Fluo-4), 32 μM AMPA challenge; values marked * are the geometric mean of 2-5 EC50 determinations. An excerpt:
Growth and Maintenance of ES Cells
Murine ES cell line E14, with a targeted mutation in the Sox1 gene and a neuroectodermal marker that offers G418 resistance when the Sox1 gene is expressed (Stem Cell Sciences, West Mains Road, Edinburgh, Scotland EH9 3JQ) may be used in all experiments. ES cells may be maintained undifferentiated as previously described (Methods For The Isolation And Maintenance Of Murine Embryonic Stem Cells; Roach-M-L, McNeish-J-D., Methods in Molecular Biology, 185, 1-16 (2002)). Briefly, ES cells may be grown in stem cell culture media comprising a base medium of Knockout™ D-MEM (Invitrogen 5791 Van Allen Way, Carlsbad, Calif. USA 92008), supplemented with 15% ES qualified Fetal Bovine Serum (FBS) (Invitrogen), 0.2 mM L-Glutamine (Invitrogen), 0.1 mM MEM non-essential amino acids (Invitrogen), 30 μg/ml Gentamicin […] (Invitrogen), 1000 U/ml ESGRO™ (CHEMICON International, Inc., 28820 Single Oak Drive, Temecula, Calif. 92590) and 0.1 mM 2-mercaptoethanol (Sigma, 3050 Spruce St., St. Louis, Mo. 63103). ES cells may then be plated on gelatin-coated dishes (BD Biosciences, 2350 Qume Drive, San Jose, Calif. 95131), wherein the media is changed daily and the cells dissociated with 0.05% Trypsin EDTA (Invitrogen) every other day.
Neural In Vitro Differentiation of ES Cells
Embryoid Body Formation: Prior to embryoid body (EB) formation the ES cells may be weaned from FBS onto Knockout Serum Replacement™ (KSR) (Invitrogen). To form EBs, ES cells may be dissociated into a single cell suspension, then 3×10^6 cells plated in bacteriology dishes (Nunc 4014) and grown as a suspension culture in NeuroEB-I medium that consisted of Knockout™ D-MEM (Invitrogen), supplemented with 10% KSR (Invitrogen), 0.2 mM L-Glutamine (Invitrogen), 0.1 mM MEM non-essential amino acids (Invitrogen), 30 μg/ml Gentamicin (Invitrogen), 1000 U/ml ESGRO™ (CHEMICON International, Inc.), 0.1 mM 2-mercaptoethanol (Sigma) and 150 ng/ml Transferrin (Invitrogen). The plates may then be put on a Stovall Belly Button™ shaker in an atmospheric oxygen incubator. The media may be changed on day 2 of EB formation with NeuroEB-I and on day 4 with NeuroEB-II (NeuroEB-I plus 1 μg/ml mNoggin (R&D Systems, 614 McKinley Place N.E. Minneapolis, Minn. 55413)
Neuronal Precursor Selection and Expansion: On day 5 of EB formation, EBs may be dissociated with 0.05% Trypsin EDTA, and 4×10^6 cells/100 mm dish may then be plated on Laminin coated tissue culture dishes in NeuroEB-II-G418 medium that consisted of a base medium of a 1:1 mixture of D-MEM/F12 supplemented with N2 supplements and NeuroBasal Medium supplemented with B27(I ASSUME THIS IS THE VITAMIN) supplement and 0.1 mM L-Glutamine (all from Invitrogen). The base medium may then be supplemented with 10 ng/ml bFGF (Invitrogen), 1 μg/ml mNoggin, 500 ng/ml SHH-N (IS THIS SONIC HEDGEHOG FROM ProSpecBio Rehovot Science Park, P.O. BOX 398, Rehovot 76103, Israel), 100 ng/ml FGF-8b (R&D Systems), 1 μg/ml Laminin and 200 μg/ml G418 (Invitrogen) for selection of neuronal precursors expressing Sox-1. The plates may then be put in an incubator containing 2% oxygen and maintained in these conditions. During the 6-day selection period, the NeuroEB-II ([…]) media should be changed daily. On day 6, the surviving neuronal precursor foci may then be dissociated with 0.05% Trypsin EDTA and the cells plated at a density of 1.5×10^6 cells/100 mm Laminin coated dish in Neuroll ([…])-G418 medium. The cells may then be dissociated every other day for expansion, and prepared for cryopreservation at passage 3 or 4. The cryopreservation medium typically contains 50% KSR, 10% dimethyl sulfoxide (DMSO) (Sigma) and 40% Neurol([…])-G418 medium. Neuronal precursors may be cryopreserved at a concentration of 4×10^6 cells/ml and 1 ml/cryovial in a controlled rate freezer overnight then transferred to an ultra-low freezer or liquid nitrogen for long-term storage. […]
For orientation: EC50 means the midpoint of the concentration-response curve. `CC(=O)NC1CCN(c2ccc(O[C@@H]3COC[C@H]3NS(=O)(=O)C(C)C)cc2)C1` (mixture of isomers) [Example 1, N-{1-[4-trans-({4-[(isopropylsulfonyl)amino]tetrahydrofuran-3-yl}oxy)phenyl]pyrrolidin-3-yl}acetamide]: the EC50 was 3.33 µM. As to `CCOc1ccccc1-c1ccc(O[C@@H]2COC[C@H]2NS(=O)(=O)C(C)C)cc1` (racemic) [Example 8, trans-N-{4-[(2′-ethoxybiphenyl-4-yl)oxy]tetrahydrofuran-3-yl}propane-2-sulfonamide.], the EC50 was 2.91 µM. Regarding `CC(C)S(=O)(=O)N[C@H]1COC[C@H]1Oc1ccc(-c2ccc(C#N)s2)nc1` (racemic) [Example 23, cis-N-[4-{[6-(5-cyano-2-thienyl)pyridin-3-yl]oxy}tetra hydrofuran-3-yl]propane-2-sulfonamide], the EC50 was found to be 2.58 µM. With `CC(C)S(=O)(=O)N[C@H]1COC[C@H]1Oc1ccc(-c2ccc(N(C)C)nc2)cc1` (racemic) [Example 43, cis-N-[4-{4-[6-(dimethyl-amino)-pyridin-3-yl]phenoxy}-tetrahydrofuran-3-yl]propane-2-sulfonamide], the EC50 stood at 4.48 µM. As for `CC(C)S(=O)(=O)N[C@H]1COC[C@H]1Oc1ccc(-c2ccccc2C(F)(F)F)cc1` (racemic) [Example 44, cis-N-[4-{[2′-(trifluoro-methyl)-biphenyl-4-yl]oxy}-tetrahydrofuran-3-yl]propane-2-sulfonamide], the EC50 stood at 2.7 µM. Next, `Cc1ccc(-c2ccc(O[C@@H]3COC[C@@H]3NS(=O)(=O)C(C)C)cc2)cc1` (racemic) [Example 45, cis-N-{4-[(4′-methylbiphenyl-4-yl)oxy]-tetrahydrofuran-3-yl}propane-2-sulfonamide]: 2.55 µM. Then `CC(C)S(=O)(=O)N[C@H]1COC[C@H]1Oc1ccc(-c2cccc(C(F)(F)F)c2)cc1` (racemic) [Example 47, cis-N-[4-{[3′-(trifluoromethyl)biphenyl-4-yl]oxy}tetrahydrofuran-3-yl]propane-2-sulfonamide], with 3.82 µM; and `CC(C)S(=O)(=O)N[C@H]1COC[C@H]1Oc1ccc(-c2ccncc2)cc1` (racemic) [Example 48, cis-N-[4-(4-pyridin-4-ylphenoxy)tetrahydrofuran-3-yl]propane-2-sulfonamide], with 0.626 µM; and `CC(C)S(=O)(=O)N[C@H]1COC[C@H]1Oc1ccc(-c2cccc3ncccc23)cc1` (racemic) [Example 50, cis-N-[4-(4-quinolin-5-ylphenoxy)tetrahydrofuran-3-yl]propane-2-sulfonamide], with 0.452 µM.

With `CC(C)S(=O)(=O)N[C@H]1COC[C@H]1Oc1ccc(-c2cccc3cnccc23)cc1` (racemic) [Example 52, cis-N-[4-(4-isoquinolin-5-ylphenoxy)tetrahydrofuran-3-yl]propane-2-sulfonamide], the EC50 came to 1.25 µM. Take `CC(C)S(=O)(=O)N[C@@H]1COC[C@@H]1Oc1ccc(-c2ccc(C#N)cc2)cc1` (relative stereo) [Example 9, cis-N-{4-[(4′-cyanobiphenyl-4-yl)oxy]tetra hydrofuran-3-yl}propane-2-sulfonamide]: the EC50 turned out to be 6.15 µM. Next, `CC(C)S(=O)(=O)N[C@@H]1COC[C@@H]1Oc1ccc(-c2cccnc2)cc1` (relative stereo) [Example 10, cis-N-[4-(4-pyridin-3-ylphenoxy)tetrahydrofuran-3-yl]propane-2-sulfonamide]: 1.16 µM; `CC(C)S(=O)(=O)N[C@@H]1COC[C@@H]1Oc1ccc(-c2cccs2)cc1` (relative stereo) [Example 11, cis-N-{4-[4-(2-thienyl)phenoxy]tetrahydrofuran-3-yl}propane-2-sulfonamide]: 0.689 µM; `CC(C)S(=O)(=O)N[C@@H]1COC[C@@H]1Oc1ccc(-c2ccc(F)nc2)cc1` (relative stereo) [Example 12, cis-N-{4-[4-(6-fluoropyridin-3-yl)phenoxy]tetrahydrofuran-3-yl}propane-2-sulfonamide]: 1.1 µM. Then `COc1ccc(-c2ccc(O[C@H]3COC[C@H]3NS(=O)(=O)C(C)C)cc2)cn1` (relative stereo) [Example 13, cis-N-{4-[4-(6-methoxypyridin-3-yl)phenoxy]tetrahydrofuran-3-yl}propane-2-sulfonamide], with 5.28 µM. For the molecule `CC(C)S(=O)(=O)N[C@@H]1COC[C@@H]1Oc1ccc(-c2ccoc2)cc1` (relative stereo) [Example 14, cis-N-{4-[4-(3-furyl)phenoxy]tetrahydrofuran-3-yl}propane-2-sulfonamide], the EC50 turned out to be 2.32 µM. `CC(C)S(=O)(=O)N[C@@H]1COC[C@@H]1Oc1ccc(-c2cccnc2F)cc1` (relative stereo) [Example 15, cis-N-{4-[4-(2-fluoropyridin-3-yl)phenoxy]tetrahydrofuran-3-yl}propane-2-sulfonamide]: the EC50 came to 2.88 µM.

As to `CC(C)S(=O)(=O)N[C@@H]1COC[C@@H]1Oc1ccc(-c2ccsc2)cc1` (relative stereo) [Example 24, cis-N-{4-[4-(3-thienyl)phenoxy]tetrahydrofuran-3-yl}propane-2-sulfonamide], the EC50 stood at 0.523 µM. Regarding `CC(C)S(=O)(=O)N[C@H]1COC[C@H]1Oc1ccc(-c2ccc(C(=O)N(C)C)cc2)cc1` (relative stereo) [Example 46, cis-4′-({4-[(isopropyl-sulfonyl)-amino]tetrahydrofuran-3-yl}oxy)-N,N-dimethyl-biphenyl-4-carboxamide], the EC50 amounted to 6.76 µM. In the case of `CC(C)S(=O)(=O)N[C@H]1COC[C@H]1Oc1ccc(-c2ccccc2C(N)=O)cc1` (relative stereo) [Example 49, cis-4′-({4-[(isopropylsulfonyl)amino]tetrahydrofuran-3-yl}oxy)biphenyl-2-carboxamide], the EC50 is 1.41 µM. Then `CC(C)S(=O)(=O)N[C@H]1COC[C@H]1Oc1ccc(-c2ccccc2S(=O)(=O)NC(C)(C)C)cc1` (relative stereo) [Example 51, cis-N-tert-butyl-4′-({4-[(isopropylsulfonyl)amino]tetrahydrofuran-3-yl}oxy)biphenyl-2-sulfonamide], with 2.09 µM; and `CC(C)S(=O)(=O)N[C@H]1COC[C@H]1Oc1ccc(-c2cccc(C(N)=O)c2)cc1` (relative stereo) [Example 53, cis-4′-({4-[(isopropylsulfonyl)amino]tetrahydrofuran-3-yl}oxy) biphenyl-3-carboxamide], with 1.11 µM; and `CC(C)S(=O)(=O)N[C@H]1COC[C@H]1Oc1ccc(-c2ccc(F)cc2C#N)cc1` (single isomer, unassigned) [Example 16], with < 0.01 µM. Next, `CC(C)S(=O)(=O)N[C@H]1COC[C@H]1Oc1ccc(-c2ccc(F)cc2)cc1` (single isomer, unassigned) [Example 17]: 0.405 µM; `CC(C)S(=O)(=O)N[C@H]1COC[C@H]1Oc1ccc(-c2ccccc2)cc1` [Example 2, N-[(3S,4S)-4-(biphenyl-4-yloxy)tetrahydrofuran-3-yl]propane-2-sulfonamide]: 1.36 µM.
